The record followed here is patent publication US20100286155A1, “ADRENOCORTICAL CARCINOMA TREATMENT” (OSI PHARMACEUTICALS, INC., priority 2009, published 2010).

Data set [1] concerns H295R ACC tumor cell line. Briefly: H295R ACC tumor cell line OSI-906 sensitivity: proliferation (Cell Titer Glo) and apoptosis (Caspase Glo). Format: cell-based, human. Particulars: varying concentrations; proliferation at 72 h, apoptosis at 48 h after dosing. In general terms: In ATP-based viability assays light output follows the ATP content of the culture.
The test system of data set [2] is adrenocortical carcinoma (ACC). Briefly: Phase I clinical trials of OSI-906 in ACC patients (RECIST, CT, FDG-PET). Format: in vivo, human. The method, then: As of 14 Apr. 2009 in two phase I clinical trials, seven patients have been enrolled with ACC.
Patient 1 is a ACC patient, previously treated with six cycles of etoposide, cisplatin, and doxorubicin and mitotane from Feb. 2008 to Jul. 2008. […] 1, 2008, 450 mg/day, escalating to 600 mg, on days 1-3 of each 14 day period. At 8 weeks of treatment, CT scan was reported as stable. […] The overall reduction in RECIST measurement of target lesions was 43%. Subsequent scans indicated incremental response, including a scan showing a partial response of 72% decrease by RECIST compared to baseline. […] ACC is typically thought to be an FDG-avid tumor.
Objective Response Criteria (RECIST)
Complete Response: Disappearance of all clinical and radiological evidence of tumor (both target and nontarget) including normalization of elevated tumor markers at baseline, if documented. The patient must be free of all tumor-related symptoms. Complete Response must be confirmed at a second tumor assessment not less than 28 days apart from the assessment at which CR was observed.
Partial Response: At least a 30% decrease in the sum of Longest Diameter (LD) of target lesions taking as reference the baseline sum LD. Partial Response must be confirmed at a second tumor assessment not less than 28 days apart from the assessment at which PR was observed.
Stable Disease: Steady state of disease. Neither sufficient shrinkage to qualify for PR nor sufficient increase to qualify for progressive disease. Stable disease must be documented to be present at least 28 days from the start of the therapy. There may be no appearance of new lesions for this category.
Progressive Disease: At least a 20% increase in the sum of LD of measured lesions taking as references the smallest sum LD recorded since the treatment started. Appearance of new lesions will also constitute progressive disease. In exceptional circumstances, unequivocal progression of nontarget lesions may be accepted as evidence of disease progression (DP).
All patients who have measurable disease according to RECIST, who received at least 2 treatment periods of therapy, and who have their disease re-evaluated will be evaluable for response. All sites of disease should be followed as either target or nontarget lesions, as categorized at baseline. All measurable lesions up to a maximum of 5 lesions per organ or 10 lesions in total, representative of all involved organs, should be identified as target lesions, while all other lesions (either additional measurable lesions or nonmeasurable lesions) should be classified as nontarget lesions. To ensure comparability, the baseline radiology/scans and subsequent radiology/scans to assess response should be performed using identical techniques (i.e., scans performed immediately following bolus contrast administration should be made with a standard volume of contrast, the identical contrast agent, and preferably the same scanner). The same method, radiological or physical, should be employed and assessed by the same individual on each occasion.

The target of data set [3] is T1, IGF-1R (Homo sapiens, UniProt P08069).
T1 construct: endogenous in cells; host or cells: H295R ACC tumor cell line
Briefly: pIGF-1R inhibition in H295R tumor cells, RTK capture array. The conditions noted are these: 3 uM, 24 hours. Format: cell-based. How it is done:
(§1) Measurement of pIGF-1R and pIR was determined by RTK capture array (ARY001, R&D Systems), and measurement of pAkt was determined by WB.

Data set [4] deals with pAkt. As to the kind of experiment: pAkt inhibition in H295R tumor cells, WB. Format: cell-based, human. Particulars: 3 uM, 24 hours. How it is done:
as §1

The mark [5] stands for this setting: Patient 1, 450 mg/day escalating to 600 mg, days 1-3 of each 14 day period.
Where [6] appears, read: seven ACC patients enrolled in two phase I trials, as of 14 Apr. 2009.

Molecules are shown by their SMILES.

T1 sequence (P08069 31-1367): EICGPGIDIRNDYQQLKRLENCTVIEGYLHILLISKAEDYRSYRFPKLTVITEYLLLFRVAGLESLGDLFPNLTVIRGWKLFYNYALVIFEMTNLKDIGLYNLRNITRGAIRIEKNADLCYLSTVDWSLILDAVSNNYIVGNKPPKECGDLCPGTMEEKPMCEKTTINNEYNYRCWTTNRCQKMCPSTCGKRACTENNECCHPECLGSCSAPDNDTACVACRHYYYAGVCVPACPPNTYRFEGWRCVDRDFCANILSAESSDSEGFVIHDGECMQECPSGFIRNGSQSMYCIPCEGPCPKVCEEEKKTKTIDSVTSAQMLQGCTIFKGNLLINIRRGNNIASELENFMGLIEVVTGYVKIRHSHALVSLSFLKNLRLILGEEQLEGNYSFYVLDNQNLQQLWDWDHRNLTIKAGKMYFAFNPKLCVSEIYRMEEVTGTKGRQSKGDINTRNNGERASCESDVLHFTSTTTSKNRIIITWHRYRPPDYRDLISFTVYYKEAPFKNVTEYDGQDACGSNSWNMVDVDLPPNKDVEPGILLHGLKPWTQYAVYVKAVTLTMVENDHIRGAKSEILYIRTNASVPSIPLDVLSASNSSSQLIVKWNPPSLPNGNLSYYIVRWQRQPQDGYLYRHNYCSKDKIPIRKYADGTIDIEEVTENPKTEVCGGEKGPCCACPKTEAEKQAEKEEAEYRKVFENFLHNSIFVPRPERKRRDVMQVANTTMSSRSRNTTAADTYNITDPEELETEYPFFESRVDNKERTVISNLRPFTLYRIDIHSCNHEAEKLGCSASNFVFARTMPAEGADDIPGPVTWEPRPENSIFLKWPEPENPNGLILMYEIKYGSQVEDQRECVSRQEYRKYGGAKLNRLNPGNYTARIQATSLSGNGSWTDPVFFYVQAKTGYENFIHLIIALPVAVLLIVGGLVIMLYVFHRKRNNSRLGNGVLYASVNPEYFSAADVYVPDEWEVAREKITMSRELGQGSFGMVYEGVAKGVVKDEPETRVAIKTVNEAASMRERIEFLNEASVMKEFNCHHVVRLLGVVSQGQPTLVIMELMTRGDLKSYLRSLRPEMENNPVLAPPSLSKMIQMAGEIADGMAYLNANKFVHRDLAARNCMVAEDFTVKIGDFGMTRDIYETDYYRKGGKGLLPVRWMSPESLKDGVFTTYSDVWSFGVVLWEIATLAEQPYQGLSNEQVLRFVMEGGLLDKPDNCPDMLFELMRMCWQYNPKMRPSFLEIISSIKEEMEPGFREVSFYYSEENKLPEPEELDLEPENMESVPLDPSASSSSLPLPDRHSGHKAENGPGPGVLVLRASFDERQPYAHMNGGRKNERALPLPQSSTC

As for `C[C@]1(O)C[C@@H](c2nc(-c3ccc4ccc(-c5ccccc5)nc4c3)c3c(N)nccn32)C1` [OSI-906, cis-3-[8-amino-1-(2-phenyl-quinolin-7-yl)-imidazo[1,5-a]pyrazin-3-yl]-1-methyl-cyclobutanol], the “sensitivity of H295R ACC tumor cell line (proliferation and apoptosis)” value in data set [1] is listed as “exhibits sensitivity to OSI-906”. For the same molecule, in data set [2] (setting [5]), the “CT scan result at 8 weeks of treatment” value is on record as “stable” and the “CT scan result at 16 weeks” value is reported as “decrease in primary lesion as well as improvement in all pulmonary lesions”. Besides, the “18-FDG-PET scan tumor uptake of tracer” value in data set [2] (Patient 1, 30 weeks into treatment, residual primary tumor and two remaining metastases) is reported as “no tumor uptake of the tracer”. In addition, the “overall reduction in RECIST measurement of target lesions” value in data set [2] (Patient 1, at 16 weeks) came to 43%. Besides, the “partial response, decrease by RECIST compared to baseline” value in data set [2] (Patient 1, subsequent scan) is listed as 72%. Further, the drug-related toxicities entry in data set [2] (Patient 1, up to 56 weeks) was “No drug-related toxicities have been observed”. Besides, in data set [2] (setting [6]), the “patients with partial response” value was “One had partial response”; the “patients with stable disease” value is on record as “two had stable disease for >6 months”; the “patients with symptomatic response” value is on record as “one had a dramatic, short-lived sympitomatic response”. Further, in data set [3], the “inhibition of phosphorylation of IGF-1R (pIGF-1R)” value is on record as “inhibits phosphorylation of both receptors”. For the same molecule, in data set [4], the “inhibition of pAkt” value is “inhibition of pAkt”.
